Data published in patent US5474757A, “Prevention of acetaminophen overdose toxicity with organosulfur compounds” (priority 1992, dated 1995).
“Also recorded” adds a separate entry of the source. Read-outs that look alike come from different tables or passages of the source.

Columns and labels:
[1] = test system: acetaminophen-induced hepatotoxicity; test: Protective effect against acetaminophen overdose in rats (serum GPT, LDH, liver damage); type: in vivo, rat (male Fisher 344)
Method: Brady et al., "Effect of […] […] Biochem. […] Extent of tissue damage was determined using a […]-6 Image Analysis System (Advanced Imaging Concepts, Inc.). […] All determinations were made without knowledge of treatment group. […] All experiments were replicated at least once.

[2] = test system: acetaminophen-induced hepatotoxicity; test: animal or person
Text: Blood samples were obtained from the jugular vein of CO2 -anesthetizedanimals. The blood was allowed to clot at room temperature and serum was separated by centrifugation. […] Biochem. Biophys.
Randomly-selected samples of the major hepatic lobe were fixed in 10% buffered formalin for histological evaluation. Samples were subsequently embedded in Paraplast (Fisher Scientific) and sectioned at 6 μm on a rotary microtome. Tissue sections were stained with hematoxylin-eosine-phloxine for examination. Extent of tissue damage was determined using a Presage CV-6 Image Analysis System (Advanced Imaging Concepts, Inc.). Images of randomly-selected slides (3 slides/animal, 2-3 animals/group) containing full cross sections of the major hepatic lobe were projected onto a computer screen and the image captured. The areas of damage were then outlined on the screen and the areas quantated using interactive software. The area of damage was shown as a percentage of the total hepatic area for each section. All determinations were made without knowledge of treatment group.
Data were analyzed by the Newman-Keuls multiple comparison procedure on the rank score analysis.
All experiments were replicated at least once.
As a Comparative Example, 300 mg/kg N-acetylcysteine was also administered immediately after administration of 0.2 g/kg acetaminophen.
As a Comparative Example, 300 mg/kg N-acetylcysteine was also administered 1 hour after administration of 0.2 g/kg acetaminophen.

[3] = test system: acetaminophen overdose; conditions: cited from earlier work; for protective action: animals; for protection in acetaminophen overdose: Prescott et al.
[4] = test system: hepatotoxicity; conditions: cited from earlier work
[5] = 50 mg/kg oral, 3 hours after APAP 0.4 g/kg
[6] = 600 mg/kg oral, 1 hour after APAP 0.4 g/kg
[7] = 600 mg/kg oral, 6 hours after APAP 0.4 g/kg
[8] = 300 mg/kg oral, 1 hour after APAP 0.2 g/kg
[9] = 300 mg/kg oral, immediately after APAP 0.2 g/kg
[10] = orally less than 24 hours after the overdose
[11] = APAP only, 0.2 g/kg oral, fasted mice, 24 h

CC(=O)N[C@@H](CS)C(=O)O [N-AC, N-acetyl-L-cysteine, reference compound]
Extent of liver damage [1, 5]: 17-38%
GPT [1, 5]: 135 ± 40 U/L
prevention of liver necrosis and GPT elevation ([1]; 50 mg/kg, 3 hours after APAP, rats): partially prevented the development of liver necrosis and the elevation of the GPT level
Extent of liver damage [1, 6]: 1-5%
GPT [1, 6]: 47 ± 4 U/L
LDH [1, 6]: 174 ± 35 U/L
Extent of liver damage [1, 7]: 13-28%
GPT [1, 7]: 153 ± 62 U/L
LDH [1, 7]: 269 ± 92 U/L
protection against liver toxicity ([1]; 600 mg/kg, 1 hr after APAP, compared with DASO2 50 mg/kg, rats): as effective as DASO2 (50 mg/kg) in preventing liver toxicity
protection ([1]; 600 mg/kg, 6 hours after APAP, rats): partial protection
dosage needed for similar protection relative to DAS / DASO2 ([1]; N-acetylcysteine dose versus DAS and DASO2 dose): more than ten-fold higher
Extent of liver damage [2, 8]: 10-17%
GPT [2, 8]: 131 ± 68 U/L
LDH [2, 8]: 1140 ± 96 U/L
Survival [2, 8]: 5/5
Extent of liver damage [2, 9]: 0%
GPT [2, 9]: 56 ± 4 U/L
LDH [2, 9]: 629 ± 124 U/L
Survival [2, 9]: 5/5
protection against hepatotoxicity ([2]; 300 mg/kg, 1 hour after acetaminophen, mice): partial protection
protection against acetaminophen toxicity ([2]; 300 mg/kg, immediately after acetaminophen, mice): protected against acetaminophen toxicity
effectiveness against acetaminophen toxicity ([2]; 3 hours after acetaminophen dosing, mice (data not shown)): neither DASO2, N-AC nor the combination treatment was effective
protective action [3]: protective action
effectiveness in acetaminophen overdose ([3]; given orally): effective
effectiveness in acetaminophen overdose [3, 10]: effective

CC(=O)Nc1ccc(O)cc1 [APAP, N-acetyl-p-aminophenol, reference compound]
Extent of liver damage [2, 11]: 26-40%
LDH [2, 11]: 17227 ± 3464 U/L
Survival [2, 11]: 2/5
increase of serum LDH ([2]; acetaminophen 0.2 g/kg, mice): 20 fold
liver histology ([2]; acetaminophen 0.2 g/kg, surviving mice (FIG. 2B)): hepatocellular necrosis; also recorded: typical centrilobular degeneration, necrosis, and inflammation
plasma acetaminophen level always associated with hepatic damage ([4]; 4 hours after ingestion): greater than 300 mcg/ml
plasma acetaminophen level always associated with hepatic damage ([4]; 12 hours after ingestion): greater than 50 mcg/ml
fatalities ([4]; acute overdoses of less than 15 g): rare
single dose after which hepatotoxicity may occur ([4]; in vivo): 7.5 to 10 g
plasma acetaminophen half-life above which hepatic necrosis is likely ([4]; overdose): exceeds 4 hours

NCCS [cysteamine]
protection in acetaminophen overdose [3]: some protection

N[C@@H](CS)C(=O)O [L-cysteine]
protective action [3]: protective action
effectiveness in acetaminophen overdose [3, 10]: effective

CSCC[C@H](N)C(=O)O [L-methionine]
protection in acetaminophen overdose [3]: some protection
protective action [3]: protective action
effectiveness in acetaminophen overdose [3, 10]: effective
